Source: patent publication US7244583B2, “Device for detecting bacterial contamination and method of use” (priority 2000, dated 2007)
*: point of attachment. DABSYL = CN(C)c1ccc(/N=N/c2ccc(S(=O)(=O)*)cc2)cc1; EDANS = O=S(=O)(O)c1cccc2c(NCCN*)cccc12

Assays:
[1] = tested on: mpl; assay: FRET analysis of mpl activity with DABCYL/EDANS-labeled peptide substrates (Listeria); type: biochemical, Listeria monocytogenes; conditions: FRET peptide probe
From the text: The presence of L. monocytogenes contamination is detected by measuring the metalloprotease (mpl), which is found only in the pathogenic species of L. monocytogenes (Domann et al., infection and Immunity. 1991. January; 59(1):65-72; Mengaud et al., 1991). A series of peptides, M1 (lot 038-13/15) and P1 (lot 038-10/12), for use as synthetic substrates for mpl (Table 1) was designed and the sequences manufactured by New England Peptide (195 Kimball St., Fitchburg, Mass.). The peptides were synthesized with fluorescent groups (DABCYL and EDANS) in such a way that the active sites were not blocked. The M1 peptide is specific for L. monocytogenes at pH 5.5.
Fluorescence resonance energy transfer (FRET) is the process of a distance dependent excited state interaction in which the emission of one fluorescent molecule is coupled to the excitation of another. […] The cleavage reaction can be followed by observing either a decrease in DABCYL fluorescence or an increase in EDANS fluorescence (loss of quenching).
Determine the peptide sequence for the active site of the protease using fluorescence resonance energy transfer (FRET). Fluorescence resonance energy transfer (FRET) is the process of a distance dependent excited state interaction in which the emission of one fluorescent molecule is coupled to the excitation of another. […]

[2] = tested on: E. coli; assay: FRET peptide substrate cleavage/detection with E. coli; type: biochemical; conditions: FRET peptide probe

Substance: DABSYL-NML, SEVERE-EDANS ({DABSYL}-NMLSEVERE-{EDANS}; SMILES CSCC[C@H](NC(=O)[C@H](CC(N)=O)NS(=O)(=O)c1ccc(/N=N/c2ccc(N(C)C)cc2)cc1)C(=O)N[C@@H](CC(C)C)C(=O)N[C@@H](CO)C(=O)N[C@@H](CCC(=O)O)C(=O)N[C@H](C(=O)N[C@@H](CCC(=O)O)C(=O)N[C@@H](CCCNC(=N)N)C(=O)N[C@@H](CCC(=O)O)C(=O)NCCNc1cccc2c(S(=O)(=O)O)cccc12)C(C)C) [Peptide M1, FRET-labeled synthetic peptide substrate for mpl of L. monocytogenes (lot 038-13/15)]
- Description: specificity of peptide substrate for Listeria (L. monocytogenes) ([1]; pH 5.5): Specific to
- detection of the presence of E. coli by the peptide ([2]; pH 5.5): does not significantly detect

Substance: DABSYL-ADTVEPTGAKE-EDANS ({DABSYL}-ADTVEPTGAKE-{EDANS}; SMILES CC(C)[C@H](NC(=O)[C@@H](NC(=O)[C@H](CC(=O)O)NC(=O)[C@H](C)NS(=O)(=O)c1ccc(/N=N/c2ccc(N(C)C)cc2)cc1)[C@@H](C)O)C(=O)N[C@@H](CCC(=O)O)C(=O)N1CCC[C@H]1C(=O)N[C@H](C(=O)NCC(=O)N[C@@H](C)C(=O)N[C@@H](CCCCN)C(=O)N[C@@H](CCC(=O)O)C(=O)NCCNc1cccc2c(S(=O)(=O)O)cccc12)[C@@H](C)O) [Peptide P2, FRET-labeled synthetic peptide probe]
- Description: cleavage by Listeria [1]: Not cleaved
- Description: cleavage by E. coli [2]: Not cleaved
